Activity calls are given as the source filed them. No cut-off for these calls is given here.
Key:
Mus musculus [1] = assay: In vivo activation of Nrf2 pathway in MCAO-R induced 12 hrs fasted male C57BL/6J mouse model assessed as increase in HO-1 expression level at 10 to 50 mg/kg, ip by Western blot analysis; assay type: functional, organism-based; settings: dose 10-50 mg/kg
HT-22 [2] = assay: Anti-ferroptotic activity against OGD/R induced mouse HT-22 cells decrease as in Fe2+ level at 10 uM in presence of ML385 by cell ferrous calorimetry analysis; assay type: functional, cell-based
HT-22 [3] = assay: Cytoprotective activity against OGD/R induced mouse HT-22 cells assessed as increase in cell viability at 10 uM measured after 24 hrs in presence of ML385 by MTT assay; assay type: functional, cell-based
HT-22 [4] = assay: Upregulation of GPX4 protein level in OGD/R induced mouse HT-22 cells at 1 to 10 uM by Western blot analysis; assay type: functional, cell-based; settings: dose 1-10 µM
Mus musculus [5] = assay: In vivo activation of Nrf2 pathway in MCAO-R induced 12 hrs fasted male C57BL/6J mouse model assessed as increase in GCLC expression level at 10 to 50 mg/kg, ip by Western blot analysis; assay type: functional, organism-based; settings: dose 10-50 mg/kg
HT-22 [6] = assay: Upregulation of HO-1 protein level in OGD/R induced mouse HT-22 cells at 10 uM in presence of ML385 by Western blot analysis; assay type: functional, cell-based
HT-22 [7] = assay: Anti-ferroptotic activity in mouse HT-22 cells assessed as prevention of erastin-induced cell death at 1 to 10 uM by MTT assay; assay type: functional, cell-based; settings: dose 1-10 µM
Mus musculus [8] = assay: Neuroprotective activity against MCAO-R induced 12 hrs fasted male C57BL/6J mouse model assessed as reduction in infarct volume administered as ip once a day for 7 days by TTC staining based analysis; assay type: functional, organism-based; settings: time 7.0 day
Mus musculus [9] = assay: Neuroprotective activity against MCAO-R induced 12 hrs fasted male C57BL/6J mouse model assessed as decrease in MDA level in cerebral ischemic tissue at 10 to 50 mg/kg, ip administered once a day for 7 days; assay type: functional, organism-based; settings: dose 10-50 mg/kg, time 7.0 day
Mus musculus [10] = assay: In vivo activation of Nrf2 pathway in MCAO-R induced 12 hrs fasted male C57BL/6J mouse model assessed as increase in NQO1 expression level at 10 to 50 mg/kg, ip by Western blot analysis; assay type: functional, organism-based; settings: dose 10-50 mg/kg
Mus musculus [11] = organism: Mus musculus; assay: Antiinflammatory activity in MCAO-R induced 12 hrs fasted male C57BL/6J mouse model assessed as reduction in TNF-alpha level by ELISA method; assay type: functional, organism-based
HT-22 [12] = assay: Upregulation of Nrf2 mRNA level in OGD/R induced mouse HT-22 cells at 1 to 10 uM by qRT-PCR analysis; assay type: functional, cell-based; settings: dose 1-10 µM
HT-22 [13] = assay: Upregulation of GCLC protein level in OGD/R induced mouse HT-22 cells at 1 to 10 uM by Western blot analysis; assay type: functional, cell-based; settings: dose 1-10 µM
Mus musculus [14] = assay: Neuroprotective activity against MCAO-R induced 12 hrs fasted male C57BL/6J mouse model assessed as reduction in neurologic deficit score administered as ip once a day for 7 days by TTC staining based analysis; assay type: functional, organism-based; settings: time 7.0 day
HT-22 [15] = assay: Upregulation of NQO1 protein level in OGD/R induced mouse HT-22 cells at 1 to 10 uM by Western blot analysis; assay type: functional, cell-based; settings: dose 1-10 µM
HT-22 [16] = assay: Induction of morphological changes in OGD/R induced mouse HT-22 cells assessed as attenuation of synaptic shortening by microscopic based analysis; assay type: functional, cell-based
HT-22 [17] = assay: Upregulation of Nrf2 protein level in OGD/R induced mouse HT-22 cells at 10 uM in presence of ML385 by Western blot analysis; assay type: functional, cell-based
HT-22 [18] = assay: Upregulation of Nrf2 protein level in OGD/R induced mouse HT-22 cells at 1 to 10 uM by Western blot analysis; assay type: functional, cell-based; settings: dose 1-10 µM
HT-22 [19] = assay: Anti-ferroptotic activity against OGD/R induced mouse HT-22 cells increase in GSH level at 10 uM in presence of ML385; assay type: functional, cell-based
Mus musculus [20] = assay: Neuroprotective activity against MCAO-R induced 12 hrs fasted male C57BL/6J mouse model assessed as improvement in neuronal mortality at 10 to 50 mg/kg, ip administered once a day for 7 days by H and E staining based analysis; assay type: functional, organism-based; settings: dose 10-50 mg/kg, time 7.0 day
HT-22 [21] = assay: Induction of morphological changes in OGD/R induced mouse HT-22 cells assessed as attenuation of cell shrinkage by microscopic based analysis; assay type: functional
Mus musculus [22] = assay: Neuroprotective activity against MCAO-R induced 12 hrs fasted male C57BL/6J mouse model assessed as decrease in S100 expression in cortex by measuring decrease in fluorescence intensity administered once a day as ip dose for 7 days by immunofluorescence method; assay type: functional, organism-based; settings: dose 10-50 mg/kg, time 7.0 day
HT-22 [23] = assay: Anti-ferroptotic activity against OGD/R induced mouse HT-22 cells decrease as in Fe2+ level at 10 uM by cell ferrous calorimetry analysis; assay type: functional, cell-based
HT-22 [24] = assay: Anti-apoptotic activity in OGD/R mouse HT-22 cells assessed as reduction in proportion of apoptic cells by annexin V-FITC and PI staining based flow cytometry analysis; assay type: functional, cell-based; settings: dose 1-10 µM
[25] = Antioxidant activity assessed as trolox equivalent of ORAC radical scavenging activity at 0.125 to 2 uM by AAPH based automatic microplate reader analysis; assay type: functional; settings: dose 0.125-2 µM
Mus musculus [26] = assay: Neuroprotective activity against MCAO-R induced 12 hrs fasted male C57BL/6J mouse model assessed as reduction in neurologic deficit score at 10 to 50 mg/kg, ip for 7 days by […]; assay type: functional, organism-based; settings: dose 10-50 mg/kg, time 7.0 day
HT-22 [27] = assay: Antioxidant activity against OGD/R induced oxidative stress in mouse HT-22 cells assessed as decrease in MDA content by absorbance based automatic microplate reader analysis; assay type: functional, cell-based
Mus musculus [28] = assay: Neuroprotective activity against MCAO-R induced 12 hrs fasted male C57BL/6J mouse model assessed as decrease in S100 expression in CA1 by measuring decrease in fluorescence intensity administered once a day as ip dose for 7 days by immunofluorescence method; assay type: functional, organism-based; settings: dose 10-50 mg/kg, time 7.0 day
Mus musculus [29] = assay: Neuroprotective activity against MCAO-R induced 12 hrs fasted male C57BL/6J mouse model assessed as alleviation of neurological impairment at 10 to 50 mg/kg, ip administered once a day for 7 days by H and E staining based analysis; assay type: functional, organism-based; settings: dose 10-50 mg/kg, time 7.0 day
Mus musculus [30] = assay: Neuroprotective activity against MCAO-R induced 12 hrs fasted male C57BL/6J mouse model assessed as decrease in S100 expression in DG by measuring decrease in fluorescence intensity administered once a day as ip dose for 7 days by immunofluorescence method; assay type: functional, organism-based; settings: dose 10-50 mg/kg, time 7.0 day
Mus musculus [31] = assay: Neuroprotective activity against MCAO-R induced 12 hrs fasted male C57BL/6J mouse model assessed as decrease in LDH level in cerebral ischemic tissue at 10 to 50 mg/kg, ip administered once a day for 7 days; assay type: functional, organism-based; settings: dose 10-50 mg/kg, time 7.0 day
[32] = Antioxidant activity assessed as free radical scavenging activity at 40 to 80 uM incubated in dark for 30 mins under shaking condition by DPPH assay; assay type: functional; settings: dose 40-80 µM
HT-22 [33] = assay: Cytoprotective activity against OGD/R induced mouse HT-22 cells assessed as inhibition of intracellular LDH release at 10 uM; assay type: functional, cell-based
HT-22 [34] = assay: Upregulation of GPX4 protein level in OGD/R induced mouse HT-22 cells at 10 uM in presence of ML385 by Western blot analysis; assay type: functional, cell-based
Mus musculus [35] = organism: Mus musculus; assay: Antiinflammatory activity in MCAO-R induced 12 hrs fasted male C57BL/6J mouse model assessed as reduction in IL-6 level by ELISA method; assay type: functional, organism-based

In the case of Cc1ccc(C(=O)NCCc2c[nH]c3ccc(N(C)C)cc23)c(O)c1, the Activity (Mus musculus [1]) is reported as “Active”, the Activity (HT-22 [2]) is reported as “inactive” and the Activity (HT-22 [3]) is reported as “inactive”. For the same compound, the Activity (HT-22 [4]) was “Active”, the Activity (Mus musculus [5]) was “Active” and the Activity (HT-22 [6]) was “inactive”. The Activity (HT-22 [7]) was “Active”, the Activity (Mus musculus [8]) was “Dose-Dependent Effect” and the Activity (Mus musculus [9]) was “Active”. The Activity (Mus musculus [10]) was “Active”, the Activity (Mus musculus [11]) was “Active” and the Activity (HT-22 [12]) was “Active”. The Activity (HT-22 [13]) was “Active”, the Activity (Mus musculus [14]) was “Dose-Dependent Effect” and the Activity (HT-22 [15]) was “Active”. The Activity (HT-22 [16]) was “Active”, the Activity (HT-22 [17]) was “inactive” and the Activity (HT-22 [18]) was “Active”. The Activity (HT-22 [19]) was “inactive”, the Activity (Mus musculus [20]) was “Active” and the Activity (HT-22 [21]) was “Active”. The Activity (Mus musculus [22]) was “Dose-Dependent Effect”, the Activity (HT-22 [23]) was “Active” and the Activity (HT-22 [24]) was “Dose-Dependent Effect”. For the same compound, the Activity [25] was 5.2, the Activity (Mus musculus [26]) was “Active” and the Activity (HT-22 [27]) was “Active”. For the same compound, the Activity (Mus musculus [28]) was “Dose-Dependent Effect”, the Activity (Mus musculus [29]) was “Active” and the Activity (Mus musculus [30]) was “Dose-Dependent Effect”. The Activity (Mus musculus [31]) was “Active”, the Activity [32] was “Active” and the Activity (HT-22 [33]) was “Active”. For the same compound, the Activity (HT-22 [34]) was “inactive” and the Activity (Mus musculus [35]) was “Active”.
